Experimental data reported in US12133923B2, “Lipid nanoparticle compositions and uses thereof” (ReCode Therapeutics, Inc., priority 2022, dated 2024).
Like-named read-outs stand apart in the source and are kept apart here. Each block holds one compound with its values, some of them ahead of it.

Experiments:
[1] = Single dose inhalation study: LNP component lipid levels in blood, lung, liver, spleen; type: in vivo, cynomolgus monkey; settings: for lipid signal in lung remaining: 72 hr; for lipid signal in lung remaining, % of peak: 7 days; for time of peak lipid level in lung tissue: after inhaled Composition A-DNAI1-HA
Protocol: Group 1 animals were terminated at 24-hours post end of exposure.
Levels of the LNP component lipids 4A3-SC7, 14:0 EPC, and DMG-PEG were measured in blood, lung, liver, and spleen samples following administration of Composition-DNAI1-HA. Blood samples were collected at pre-treatment, 0.5 hr, 1 hr, 6 hr, 24 hr, 48 hr, and 7 days postadministration and processed to separate the plasma and blood cell fractions. Spleen and liver samples were collected at 6 hr, 24 hr, 72 hr, and 7 days post-exposure. Lung tissue was sampled in three locations from the right lung of each animal: Caudal lobe, cranial lobe, and middle lobe at each necropsy time point.

[2] = tested on: CFTR function in human Bronchial Epithelials (hBE); experiment: CFTR function (chloride conductance, MTECC24) in hBE after nebulized CFTR mRNA LNPs; type: cell-based
Protocol: CFTR mRNA was incorporated into various LNP compositions: DODAP-containing Composition B and various non-DODAP lipid nanoparticles (400 μL for Composition A and Composition H) stored in 1× phosphate buffered saline (PBS). The compositions were nebulized using a VitroCell® system with a mesh nebulizer to deliver aerosolized LNPs to primary human Bronchial Epithelials (hBE). CFTR function was measured. The composition of the nanoparticles used in the study is shown below in Table 13.
Experiments were conducted to evaluate the impact of cholesterol on the stability and efficacy of lipid nanoparticle (LNP) compositions. Composition B lipid nanoparticles containing higher molar percentage of cholesterol were created and subjected to test its CFTR function. Chloride conductance was measured with multi transepithelial current clamp system (MTECC24). […] Further, lipid nanoparticles containing 50% molar percentage of cholesterol were created, measured its CFTR function and resulted that increased molar percentage of cholesterol in lipid nanoparticles enhanced CFTR function (FIG. 41). […]
Cystic Fibrosis treatment drugs (Trifkafta or Orkambi) were treated at the time of nebulization. At 24 h post-treatment, chloride conductance was measured with multi transepithelial current clamp system (MTECC24). […]

hBE cells = experiment: Transepithelial electrical resistance (TEER) in hBE; type: cell-based, human; settings: W1282X/W1282X and R553X/W1282X hBE; pre-treatment before LNP nebulization
Protocol: As used herein, the phrase “transepithelial electrical resistance (TEER)” is a measurement method of electrical resistance across a cellular monolayer to confirm the integrity and permeability of a monolayer. Measurement of TEER is described, for example, in Srinivasan et al. J. Lab. Automation 20:107-126 (2015).
Cystic Fibrosis treatment drugs (Trifkafta or Orkambi) were treated at the time of nebulization. At 24 h post-treatment, chloride conductance was measured with multi transepithelial current clamp system (MTECC24). In both cell lines, nebulization of lipid nanoparticles containing CFTR mRNA rescued CFTR function.
To determine whether aerosolized lipid nanoparticles affect cell toxicity, six ΔF508/ΔF508 homozygous genotypes hBE cells were dosed lipid nanoparticles and measured electrical resistance across a cellular monolayer and released lactic acid dehydrogenase (LDH).
To determine whether mucus production affects transfection efficiency of lipid nanoparticles, W1282X/W1282X hBEs and R553X/W1282X hBEs cells were pre-treated Dithiothreitol (DTT) before lipid nanoparticles were nebulized (experimental scheme shown in FIG. 49). […] Cell toxicities were measured by transepithelial electrical resistance (TEER).

SMILES: CCCCCCCCCCCCCC(=O)OCC(COP(=O)(OCC)OCC[N+](C)(C)C)OC(=O)CCCCCCCCCCCCC (stereo not shown) [14:0 EPC, 1,2-dimyristoyl-sn-glycero-3-ethylphosphocholine]
lipid signal in lung remaining ([1]; high dose): 2.5% | lipid signal in lung remaining ([1]; low dose): 13.2% | lipid signal in lung remaining, % of peak ([1]; high dose): 0.8% | lipid signal in lung remaining, % of peak ([1]; low dose): 0.7% | time of peak lipid level in lung tissue [1]: 6 h | lipid level in liver ([1]; all samples except one high dose sample at 6 hr (below assay LOQ)): not detected | concentration at 6 hr ([1]; both sexes, cynomolgus monkey, lung, inhaled, 0.34 mg/kg, 6 hr, high dose (group 3), read-out: lipid level in lung): 13900 to 66700 ng/g | concentration at 1 hr ([1]; both sexes, cynomolgus monkey, plasma, inhaled, 0.34 mg/kg, high dose (group 3), 1 hr, read-out: lipid level in plasma): 1.03 ng/mL | concentration at 6 hr ([1]; both sexes, cynomolgus monkey, plasma, inhaled, 0.34 mg/kg, high dose (group 3), 6 hr, read-out: lipid level in plasma): 1.97 ng/mL | concentration at 6 hr ([1]; both sexes, cynomolgus monkey, spleen, inhaled, 0.34 mg/kg, high dose sample at 6 hr, all others not detected, read-out: lipid level in spleen): 9.56 ng/g | lipid level in plasma ([1]; high dose (group 3), 1 hr): 0.99 ng/mL

lipid signal in lung remaining ([1]; high dose): 0.6% | lipid signal in lung remaining ([1]; low dose): 13% | lipid level in lung ([1]; 7 days post-administration, all samples except one caudal lobe sample in high dose group): below the limit of quantitation | time of peak lipid level in lung tissue [1]: 6 h | concentration at 6 hr ([1]; both sexes, cynomolgus monkey, lung, inhaled, 0.34 mg/kg, 6 hr post-exposure, high dose group, read-out: lipid level in lung): 9550 to 67800 ng/mL
SMILES: CCCCCCCSCC(C)C(=O)OCCOC(=O)CCN(CCCN(C)CCCN(CCC(=O)OCCOC(=O)C(C)CSCCCCCCC)CCC(=O)OCCOC(=O)C(C)CSCCCCCCC)CCC(=O)OCCOC(=O)C(C)CSCCCCCCC (stereo not shown) [Composition 4A3-SC7]

SMILES: CC(C)(C)c1cc(C(C)(C)C)c(NC(=O)c2c[nH]c3ccccc3c2=O)cc1O [Ivacaftor]
rescue of CFTR function on addition of CFTR activator ([2]; R553X/W1282X and W1282X/W1282X hBE, after delivery of lipid nanoparticles): further increased rescue of CFTR function

SMILES: O[C@H](CS)[C@H](O)CS (racemic) [DTT, Dithiothreitol]
chloride flux after nebulization of lipid nanoparticles ([2]; W1282X/W1282X and R553X/W1282X hBE, pre-treatment raised from 3 mM to 10 mM): correlated with higher chloride flux | cell toxicity by TEER (hBE cells): cell integrity was not affected
